Measurements published in patent US20230123585A1, “COMPOSITIONS AND METHODS FOR TREATING OR PREVENTING CANCER USING DEUBIQUITINASE INHIBITORS” (The University of Chicago, priority 2020, published 2023).
Peptide text beside a SMILES is read from it. * marks the point of attachment. Cbz = O=C(OCc1ccccc1)*

How the values were obtained:
[1] = system: METTL3 / m^6A methyltransferase complex in A375 cells; test: Immunoblot of METTL3 / m^6A methyltransferase complex protein in A375 cell lysates; format: cell-based, human
Procedure: (§1) FIGS. 6A-6H: Phosphorylation of the m^6A Methyltransferase Complex May Affect Tumorigenesis. (A) Lysates of A375 stable transfectants harvested at different time points after treatment with cycloheximide (CHX) 10 μg/ml were analyzed by immunoblot. (B) LC-MS/MS quantification of the m^6A/A ratio in mRNA of A375 stable transfectants. (C) After 8 h treatment with 10 μM PD0325901 or 0.1 μM tramentib, cell lysates from A375 cells were analyzed by immunoblot. (D) LC-MS/MS quantification of the m^6A/A ratio in mRNA of A375 cells treated with 10 μM PD0325901 or 0.1 μM tramentib for 48 h. (E) After 8hr treatment with 10 μM EOAI3402143 (EOAI) or 30 μM vialinin A , cell lysates from A375 cells were analyzed by immunoblot. (F) A375 stable transfectants as indicated were treated with 3 μM EOAI3402143 (EOAI) or 10 μM vialinin A before measuring cell viability by SRB assay. Data are presented as relative to the R-WT cells without drug treatment (n=3 per group, data represent mean±SEM). (G) Immunofluorescence analysis of METTL3 (green) in SKBR3 cells treated with 1 μM tucatinib and 1 μM lapatinib for 8 hr. DAPI (blue) was used to mark the nucleus. (H) LC-MS/MS quantification of the m^6A/A ratio in mRNA of SKBR3 and BT474 cells treated with 1 μM tucatinib and 1 μM lapatinib for 48 h. (See also FIG. 14.)
(§2) FIGS. 11A-11G: USP5 is Required for ERK-Mediated METTL3 Stabilization. (A) A375 cells transfected with HA-ubiquitin (ub) were treated with 10 μM MG-132 and MEK inhibitor PD0325901 for 8 h. The ubiquitination of METTL3 was detected by IP with anti-METTL3 and immunoblot with anti-HA. (B) After 8 h treatment with 10 μM PD0325901 with or without 10 μM MG-132, cell lysates from A375 cells were analyzed by immunoblot. (C) A375 cells were treated with various concentrations of PD0325901 for 1 h. Cell lysates were subjected to IP with METTL3 antibody followed by immunoblot. (D) 293T cells transfected as indicated were subjected to IP/immunoblot analysis. (E) Immunofluorescence analysis of myc-METTL3 (green) in mESC stable transfectants. DAPI (blue) was used to mark the nucleus. (F) Lysates of 293T cells transfected as indicated were subjected to IP with anti-Flag antibody followed by immunoblot. (G) Immunofluorescence analysis of 293T cells co-transfected with myc-METTL3 (green), Flag-USP5 (red) with or without constitutively active B-RAF.
Immunoprecipitation, immunoblotting, and in vitro kinase assay. Immunoprecipitation (IP) and immunoblotting (IB) were performed as previously described (Sun et al., 2016). In brief, protein samples were isolated from respective cells by lysis in RIPA buffer (1% Triton X-100, 150 mM NaCl, 20 mM Na2PO4, pH 7.4) containing Halt Protease and Phosphatase Inhibitor Cocktail (Thermo Scientific). Subsequently, a BCA assay (Thermo Scientific) was used to determine the protein concentrations. For IP, indicated antibody and protein A/G magnetic beads (Thermo Scientific) were incubated with lysate at 4° C. overnight followed by washing and elution with sample buffer. Equal amounts of protein were separated by SDS-PAGE followed by wet transfer to PVDF membranes. Blots were blocked with 5% non-fat milk or BSA and incubated with respective primary antibody at 4° C. overnight. Primary antibodies were detected by HRP-linked secondary antibodies (Cell Signaling) together with SuperSignal West Pico Plus chemiluminescent substrate (Thermo Scientific) and imaged in a FluorChem R system (ProteinSimple).

A375 cells = test: Cell viability of control or METTL3 knockdown A375 cells after treatment with DNA damage repair modulators; format: cell-based, human; conditions: METTL3 knockdown versus control
Procedure: FIGS. 24A-24E: The synergistic damage effects of METTL3 knockdown with DNA damage repair modulators or inhibitors of specific DNA repair pathways in cancer cells. […] Error bars indicate mean±s.e.m. P values were determined by two-tailed t-test. (E) Analysis of dsDNA break in the control or METTL3 knockdown colon cancer cells. TUNEL assay was performed.

p-METTL3 (S43) = p-METTL3 (S43) in A375 cells, IP with METTL3 antibody followed by immunoblot; format: cell-based, human; conditions: 1 h, 1 μM dabrafenib, 1 μM PLX-4720, 10 μM PD0325901, 0.1 μM trametinib
Description: FIGS. 10A-10G: ERK Interacts and Phosphorylates METTL3 and WTAP. (A-C) Mass spectrometry detected S43, S50 and S525 phosphorylation in METTL3 in 293T cells co-transfected with B-RAF V600E. (D) Characterization of anti-p-METTL3 (S43) antibodies of 293T cells transfected as indicated with MEK S218D/S222D, HER2 V659E, B-RAF V600E and WT or non-phosphorylatable alanine mutant (3A) METTL3. (E) The METTL3 S43 phosphorylation was identified by in vitro kinase assays, in which purified METTL3-METTL14 were incubated with activated ERK2. (F) A375 cells were treated with 1 μM dabrafenib, 1 μM PLX-4720, 10 μM PD0325901, 0.1 μM tramentib for 1 h. Cell lysates were subjected to IP with METTL3 antibody followed by immunoblot. (G) Phos-tag SDS-PAGE showing the phosphorylation status of WT or non-phosphorylatable alanine mutants of mice WTAP in 293T cells co-transfected with B-RAF. 2A, T298A/S341A.
To investigate METTL3 phosphorylation by ERK inside cells, a polyclonal antibody was generated that targets S43-phosphorylated METTL3. This antibody recognizes S43-phosphorylated METTL3 but not a mutant form of METTL3, METTL3 3A, with all three phosphorylation serine sites replaced with alanine (FIG. 10D). This P-S43 antibody was then used as a tool to monitor METTL3 phosphorylation. […] Furthermore, the p-METTL3 (S43) in A375 cells, a human melanoma cell line with constitutively active ERK due to a B-RAF V600E mutation, was abrogated by treatments with B-RAF inhibitors (dabrafenib and PLX4720) or MEK inhibitors (PD0325901 and trametinib) (FIG. 10F), supporting that S43 phosphorylation on METTL3 is installed through the ERK pathway.
Immunoprecipitation, immunoblotting, and in vitro kinase assay. Immunoprecipitation (IP) and immunoblotting (IB) were performed as previously described (Sun et al., 2016). […] Primary antibodies were detected by HRP-linked secondary antibodies (Cell Signaling) together with SuperSignal West Pico Plus chemiluminescent substrate (Thermo Scientific) and imaged in a FluorChem R system (ProteinSimple).

[2] = system: mRNA m^6A in SKBR3 and BT474 cells; test: LC-MS/MS quantification of the m^6A/A ratio in mRNA of SKBR3 and BT474 cells; format: cell-based; conditions: 1 μM, 48 h
Procedure: as §1, with “(F) A375 stable transfectants as indicated were treated with 3 μM EOAI3402143 (EOAI) or 10 μM vialinin A before measuring cell viability by SRB assay. Data are presented as relative to the R-WT cells without drug treatment (n=3 per group, data represent mean±SEM). (G) Immunofluorescence analysis of METTL3 (green) in SKBR3 cells treated with 1 μM tucatinib and 1 μM lapatinib for 8 hr. DAPI (blue) was used to mark the nucleus.” left out, “(See also FIG. 14.)” left out
LC-MS/MS quantification of m^6A in poly(A) RNA. mRNA was extracted from the total RNA using 2 rounds of the Dynabeads mRNA purification kit. […] The nucleosides were quantified by using the nucleoside-to-base ion mass transitions of 282 to 150 (m^6A) and 268 to 136 (A). Quantification was carried out by comparison with a standard curve obtained from pure nucleoside. The ratio of m^6A to A was calculated based on the calibrated concentrations (Liu et al., 2018).

METTL3 in SKBR3 cells = test: Immunofluorescence analysis of METTL3 in SKBR3 cells; format: cell-based; conditions: 1 μM, 8 hr
Procedure: as §1, with “(See also FIG. 14.)” left out
Confocal Microscopy. […] Confocal fluorescence images were captured using Olympus FV1000 confocal spectral microscope.

ubiquitination of METTL3 = test: Ubiquitination of METTL3 in A375 cells transfected with HA-ubiquitin (IP anti-METTL3, immunoblot anti-HA); format: cell-based, human; conditions: 10 μM MG-132 and 10 μM EOAI3402143 or 30 μM vialinin A for 8 h
Procedure: as §2
FIGS. 14A-14I: Phosphorylation of the m^6A Methyltransferase Complex May Affect Tumorigenesis. […] (B) LC-MS/MS quantification of the m^6A/A ratio in mRNA of melanoma cell lines. (C) After 8 h treatment with 10 μM PD0325901 or 0.1 μM tramentib, cell lysates from HCT-116 cells were analyzed by immunoblot. […] The ubiquitination of METTL3 was detected by IP with anti-METTL3 and immunoblot with anti-HA. (F) After 8 hr treatment with 10 μM EOAI3402143 (EOAI) or 30 μM vialinin A, cell lysates from HCT-116 cells were analyzed by immunoblot. […] (I) LC-MS/MS quantification of the m^6A/A ratio in mRNA of breast cancer cell lines.
Immunoprecipitation, immunoblotting, and in vitro kinase assay. […] Primary antibodies were detected by HRP-linked secondary antibodies (Cell Signaling) together with SuperSignal West Pico Plus chemiluminescent substrate (Thermo Scientific) and imaged in a FluorChem R system (ProteinSimple).

## CC(C)C[C@@H](C=O)NC(=O)[C@H](CC(C)C)NC(=O)[C@H](CC(C)C)NC(=O)OCc1ccccc1 [MG132] (Cbz-Leu-Leu-Leu-aldehyde)
[1]; A375 cells, 10 μM PD0325901 with 10 μM MG-132, 8 h
  PD0325901-induced degradation of METTL3 on addition of proteasome inhibitor: restored

## C[C@@H]1COCCN1c1cc(C2([S@](C)(=N)=O)CC2)nc(-c2cc[nH]c3nccc2-3)n1 [AZD6738, ceralasertib]
A375 cells
  cell death of METTL3 knockdown cells versus controls after DNA damage repair inhibitor: more severe cell death

## CC(C)(C)c1nc(-c2cccc(NS(=O)(=O)c3c(F)cccc3F)c2F)c(-c2ccnc(N)n2)s1 [dabrafenib]
p-METTL3 (S43)
  p-METTL3 (S43): abrogated

## CS(=O)(=O)CCNCc1ccc(-c2ccc3ncnc(Nc4ccc(OCc5cccc(F)c5)c(Cl)c4)c3c2)o1 [lapatinib]
[2]
  cellular mRNA m^6A methylation (m^6A/A ratio): reduce
METTL3 in SKBR3 cells
  METTL3 protein level: reduce

## Cc1cc(Nc2ncnc3ccc(NC4=NC(C)(C)CO4)cc23)ccc1Oc1ccn2ncnc2c1 [tucatinib]
[2]
  cellular mRNA m^6A methylation (m^6A/A ratio): reduce
METTL3 in SKBR3 cells
  METTL3 protein level: reduce

## O=C(Cc1ccccc1)Oc1c(OC(=O)Cc2ccccc2)c(-c2ccc(O)cc2)c(O)c(O)c1-c1ccc(O)cc1 [vialinin]
[1]; A375 cells (also HCT-116, FIG. 14F), 8 hr, 10 μM EOAI3402143 or 30 μM vialinin A
  METTL3 protein level: decreased
Ubiquitination of METTL3
  ubiquitination of METTL3: increased

## CCCS(=O)(=O)Nc1ccc(F)c(C(=O)c2c[nH]c3ncc(Cl)cc23)c1F [PLX4720]
p-METTL3 (S43)
  p-METTL3 (S43): abrogated

## O=c1[nH]cc(F)c(=O)[nH]1 [5-FU]
A375 cells
  effect on cell viability of DNA damage agent with METTL3 knockdown: synergistic effects

## C[C@]1(c2nc3c(C(N)=O)cccc3[nH]2)CCCN1 [veliparib]
A375 cells
  cell death of METTL3 knockdown cells versus controls after DNA damage repair inhibitor: more severe cell death

## Bleomycin
A375 cells
  effect on cell viability of DNA damage agent with METTL3 knockdown: synergistic effects
